Reference: patent US10294202B2, “Pyrrolidinones as herbicides” (FMC Corporation, priority 2013, dated 2019)

Legend:
[1] = test system: crabgrass, large; assay: Test A pre-/postemergence herbicide test; format: in vivo, Digitaria sanguinalis; conditions: for Crabgrass, Large plant response rating: visual rating on 0 to 100 scale (0 no effect, 100 complete control)
Outline: (§1)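 Seeds in loam–sand blend received preemergence directed soil spray; separately, plants 2–10 cm at one- to two-leaf stage received postemergence spray, both with test chemicals in non-phytotoxic solvent with surfactant. After ~10 days in greenhouse, injury rated visually against untreated controls, 0 (no effect) to 100 (complete control).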

[2] = test system: velvetleaf; assay: Test A pre-/postemergence herbicide test; format: in vivo, Abutilon theophrasti; conditions: for Velvetleaf plant response rating: visual rating on 0 to 100 scale (0 no effect, 100 complete control)
Outline: as §1

[3] = test system: ducksalad; assay: Test C flooded paddy test; format: in vivo, Heteranthera limosa; conditions: Flood
Outline: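 Visual ratings from 0, no effect, to 100, complete control, were made against untreated controls after 13–15 greenhouse days. Compounds had gone straight into paddy water 3 cm above the soil, kept at that depth, on 2-leaf-stage plants.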

[4] = test system: blackgrass; assay: Test A postemergence herbicide test; format: in vivo, Alopecurus myosuroides
Outline: (§2)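 Injury was rated visually about 10 days after treatment on a 0 (no effect) to 100 (complete control) scale, compared with untreated plants. Test chemicals were sprayed postemergence onto greenhouse plants 2–10 cm high at one to two leaves, grown in a loam–sand blend.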

[5] = test system: galium; assay: Test A postemergence herbicide test; format: in vivo, Galium aparine
Outline: as §2

[6] = Postemergence, 125 g ai/ha, 0 to 100 scale, 0 no effect, 100 complete control
[7] = Postemergence, 500 g ai/ha, 0 to 100 scale (0 no effect, 100 complete control)
[8] = preemergence, 500 g ai/ha, 0 to 100 scale
[9] = 31 g ai/ha, scale of 0 to 100 where 0 is no effect and 100 is complete control, 13 to 15 days
[10] = 62 g ai/ha, scale of 0 to 100 where 0 is no effect and 100 is complete control, 13 to 15 days
[11] = 125 g ai/ha, scale of 0 to 100 where 0 is no effect and 100 is complete control, 13 to 15 days
[12] = 125 g ai/ha, 0 to 100 scale, 0 no effect, 100 complete control
[13] = 500 g ai/ha, 0 to 100 scale (0 no effect, 100 complete control)
[14] = 125 g ai/ha, visual rating, 0 to 100 scale, 0 no effect, 100 complete control, approximately 10 days, preemergence
[15] = Postemergence, 125 g ai/ha, 0 to 100 scale, 0 is no effect, 100 is complete control
[16] = preemergence, 500 g ai/ha, 0 to 100 scale, 0 is no effect and 100 is complete control
[17] = 125 g ai/ha, 0 to 100 scale, 0 is no effect, 100 is complete control
[18] = 250 g ai/ha, scale of 0 to 100 where 0 is no effect and 100 is complete control, 13 to 15 days
[19] = Preemergence, 125 g ai/ha, 0 to 100 scale where 0 is no effect and 100 is complete control
[20] = 1000 g ai/ha, 0 to 100 scale (0 no effect, 100 complete control)
[21] = 125 g ai/ha, visual rating on 0 to 100 scale (0 no effect, 100 complete control), approx. 10 days

Row | SMILES | Plant response rating, Crabgrass, Large [1, 7] | Plant response rating, Velvetleaf [2, 7] | Plant response rating, Ducksalad [3, 9] | Plant response rating, Ducksalad [3, 10] | Plant response rating, Ducksalad [3, 11] | Plant response rating, Blackgrass [4, 13] | Plant response rating, Crabgrass, Large [1, 15] | Plant response rating, Crabgrass, Large [1, 16] | Plant response rating, Velvetleaf [2, 16] | Plant response rating, Blackgrass [4, 21] | Plant response rating, Galium [5, 21] | Plant response rating, Galium [5, 13] | further results
1 | O=C1NCC(c2cccc(C(F)(F)F)c2)C1C(=O)Nc1ccccc1F (racemic) [Compound 3] | 80 | 0 | 40 | 60 | 85 | – | – | – | – | – | – | – | Plant response rating, Crabgrass, Large [1, 6]: 70; Crabgrass, Large plant response rating ([1]; Preemergence, 125 g ai/ha): 90; Plant response rating, Crabgrass, Large [1, 8]: 90; Velvetleaf plant response rating ([2]; Preemergence, 125 g ai/ha): 0; Plant response rating, Velvetleaf [2, 8]: 0; Plant response rating, Ducksalad ([3]; 250 g ai/ha, scale 0 to 100): 90
2 | O=C1NCC(c2ccc(F)c(F)c2)C1C(=O)Nc1cccc(F)c1 (racemic) [Compound 12] | 90 | 20 | 0 | 0 | 0 | – | – | – | – | – | – | – | Plant response rating, Crabgrass, Large [1, 6]: 80; Crabgrass, Large plant response rating ([1]; Preemergence, 125 g ai/ha): 90; Plant response rating, Crabgrass, Large [1, 8]: 90; Plant response rating, Velvetleaf [2, 6]: 0; Velvetleaf plant response rating ([2]; Preemergence, 125 g ai/ha): 0; Plant response rating, Velvetleaf [2, 8]: 0; Plant response rating, Ducksalad ([3]; 250 g ai/ha, scale 0 to 100): 0
3 | O=C1NCC(c2ccc(F)c(C(F)(F)F)c2)C1C(=O)Nc1ccccc1C(F)(F)F (racemic) [Compound 78] | 80 | 60 | – | – | – | – | – | – | – | – | – | – | Plant response rating, Crabgrass, Large [1, 6]: 70; Crabgrass, Large plant response rating ([1]; Preemergence, 125 g ai/ha): 90; Plant response rating, Crabgrass, Large [1, 8]: 90; Plant response rating, Velvetleaf [2, 6]: 20; Velvetleaf plant response rating ([2]; Preemergence, 125 g ai/ha): 0; Plant response rating, Velvetleaf [2, 8]: 30
4 | O=C1NCC(c2ccc(F)cc2)C1C(=O)Nc1cccc(F)c1F (racemic) [Compound 119] | – | – | 100 | 100 | 100 | 50 | – | – | – | – | – | – | Plant response rating, Blackgrass [4, 12]: 30; Plant response rating, Galium [5, 12]: 30; Galium plant response rating (0 to 100 scale, 0 is no effect, 100 is complete control) ([5]; 500 g ai/ha): 50; Plant response rating, Ducksalad ([3]; 250 g ai/ha, scale 0 to 100): 100
5 | O=C1NCC(c2cccc(C(F)(F)F)c2)C1C(=O)Nc1ccccc1Cl (racemic) [Compound 189] | – | – | – | – | 75 | – | 60 | 90 | 0 | – | – | – | Plant response rating, Crabgrass, Large [1, 14]: 90; Crabgrass, Large plant response rating (0 to 100 scale, 0 is no effect, 100 is complete control) ([1]; Postemergence, 500 g ai/ha): 80; Plant response rating, Velvetleaf [2, 14]: 0; Plant response rating, Velvetleaf [2, 15]: 0; Velvetleaf plant response rating (0 to 100 scale, 0 is no effect, 100 is complete control) ([2]; Postemergence, 500 g ai/ha): 0; Plant response rating, Ducksalad ([3]; 250 g ai/ha, scale 0 to 100): 80; Plant response rating, Ducksalad ([3]; 500 g ai/ha, scale 0 to 100): 95; Plant response rating, Ducksalad ([3]; 1000 g ai/ha, scale 0 to 100): 100
6 | O=C1NCC(c2cccc(C(F)F)c2)C1C(=O)Nc1cccc(F)c1F (racemic) [Compound 211] | – | – | – | – | 60 | – | – | – | – | – | – | – | Plant response rating, Blackgrass [4, 17]: 50; Blackgrass plant response rating (0 to 100 scale, 0 is no effect, 100 is complete control) ([4]; 500 g ai/ha): 70; Plant response rating, Galium [5, 17]: 60; Galium plant response rating (0 to 100 scale, 0 is no effect, 100 is complete control) ([5]; 500 g ai/ha): 70; Plant response rating, Ducksalad [3, 18]: 100; Plant response rating, Ducksalad ([3]; 500 g ai/ha, scale 0 to 100): 75; Plant response rating, Ducksalad ([3]; 1000 g ai/ha, scale 0 to 100): 100
7 | O=C1NCC(c2ccc(C(F)(F)F)c(F)c2)C1C(=O)Nc1ccccc1F (racemic) [Compound 246] | 60 | 0 | – | – | – | – | 50 | 90 | 0 | – | – | – | Plant response rating, Crabgrass, Large [1, 19]: 90; Plant response rating, Velvetleaf [2, 15]: 0; Plant response rating, Velvetleaf [2, 19]: 0
8 | O=C1NCC(c2ccc(C(F)(F)F)c(F)c2)C1C(=O)Nc1cccc(F)c1F (racemic) [Compound 247] | 70 | 0 | – | – | – | – | 50 | 90 | 0 | – | – | – | Plant response rating, Crabgrass, Large [1, 19]: 90; Plant response rating, Velvetleaf [2, 15]: 0; Plant response rating, Velvetleaf [2, 19]: 0; Plant response rating, Ducksalad [3, 18]: 75; Plant response rating, Ducksalad ([3]; 500 g ai/ha, scale 0 to 100): 85; Plant response rating, Ducksalad ([3]; 1000 g ai/ha, scale 0 to 100): 100; Plant response rating, Ducksalad ([3]; 2000 g ai/ha, scale 0 to 100): 100
9 | O=C1NCC(c2ccc(C(F)(F)F)nc2)C1C(=O)Nc1ccccc1F (racemic) [Compound 262] | 80 | – | – | – | – | – | 70 | 90 | 0 | – | – | – | Plant response rating, Crabgrass, Large [1, 19]: 90; Plant response rating, Velvetleaf [2, 19]: 0
10 | O=C1NCC(c2ccc(C(F)(F)F)nc2)C1C(=O)Nc1cccc(F)c1F (racemic) [Compound 263] | 90 | – | 70 | 90 | 100 | – | 80 | 100 | 50 | – | – | – | Plant response rating, Crabgrass, Large [1, 19]: 90; Plant response rating, Velvetleaf [2, 19]: 50; Plant response rating, Ducksalad [3, 18]: 100
11 | O=C1NCC(c2ccc(C(F)(F)F)cc2)C1C(=O)Nc1ccccc1Cl (stereo not shown) [Compound 233] | – | – | – | – | – | – | – | – | – | – | – | – | Plant response rating, Blackgrass [4, 17]: 60; Blackgrass plant response rating (0 to 100 scale, 0 is no effect, 100 is complete control) ([4]; 500 g ai/ha): 60; Plant response rating, Galium [5, 17]: 20; Galium plant response rating (0 to 100 scale, 0 is no effect, 100 is complete control) ([5]; 500 g ai/ha): 50
12 | O=C1NCC(c2cccc(C(F)(F)F)c2)C1C(=O)Nc1cccc(F)c1F (stereo not shown) [Compound 241] | 80 | 20 | – | – | – | – | 70 | 90 | 0 | – | – | – | Plant response rating, Crabgrass, Large [1, 19]: 90; Plant response rating, Velvetleaf [2, 15]: 0; Plant response rating, Velvetleaf [2, 19]: 0
13 | O=C(Nc1ccccc1F)C1C(=S)NCC1c1cccc(C(F)(F)F)c1 (stereo not shown) [Compound 274] | – | – | – | – | – | – | – | – | – | – | – | – | Plant response rating, Blackgrass [4, 20]: 50; Plant response rating, Galium [5, 20]: 0
14 | CN1CC(c2ccc(C(F)(F)F)cc2)C(C(=O)Nc2ccccc2F)C1=O (stereo not shown) [Compound 304] | – | – | – | – | – | 70 | – | – | – | 50 | 20 | 60 | –
15 | O=C1NCC(c2cccc(Br)c2)C1C(=O)Nc1ccccc1F (stereo not shown) [Compound 307] | – | – | – | – | – | 70 | – | – | – | 30 | 0 | 0 | –
16 | O=C1NCC(c2cccc(C(F)(F)F)c2)C1C(=O)Nc1ccccc1Cl (stereo not shown) [Compound 312] | – | – | 50 | 60 | 65 | 50 | – | – | – | 40 | 30 | 50 | Plant response rating, Ducksalad [3, 18]: 95
17 | O=C1NCC(c2cccc(C(F)(F)F)c2)C1C(=O)Nc1ccc(F)c(F)c1F (stereo not shown) [Compound 315] | – | – | – | – | – | 50 | – | – | – | 40 | 40 | 50 | –
18 | O=C1NCC(c2cccc(C(F)(F)F)c2)C1C(=O)Nc1cccc(Cl)c1F (stereo not shown) [Compound 316] | – | – | – | – | – | 40 | – | – | – | 30 | 20 | 40 | –
19 | Cc1cccc(NC(=O)C2C(=O)NCC2c2cccc(C(F)(F)F)c2)c1 (stereo not shown) [Compound 317] | – | – | 0 | 0 | 0 | 20 | – | – | – | 0 | 0 | 0 | Plant response rating, Ducksalad [3, 18]: 0
20 | O=C1NCC(c2cccc(OC(F)F)c2)C1C(=O)Nc1ccc(F)c(F)c1F (stereo not shown) [Compound 325] | – | – | – | – | – | 50 | – | – | – | 50 | 50 | 60 | –
